US20050282755A1, “Compositions having antimicrobial activity and uses thereof” (priority 2004, published 2005)
Converted amounts (≈) assume the structure as drawn. Non-standard residues stand in square brackets, D forms with d. Residues, ends and D or L forms follow the SMILES beside them. *: point of attachment. Lauroyl = CCCCCCCCCCCC(=O)*

What was measured:
Type in all cases: cell-based
[1] = tested on: Staphylococcus aureus ATCC 29213; assay: MIC, NCCLS M7-A6 broth microdilution, cation-adjusted Mueller Hinton broth (Table 9, no superscript); settings: ATCC 29213
Summary of the method: (§1)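 MIC, read as the lowest peptide concentration without visible growth compared with peptide-free wells, after overnight incubation at 37° C. Wells held cation-adjusted Mueller Hinton broth and a final inoculum of 5×10^5 to 1×10^6 CFU/mL from log-phase culture.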

[2] = tested on: Escherichia coli ATCC 25922; assay: MIC, NCCLS M7-A6 broth microdilution (Table 9, no superscript); settings: ATCC 25922
Summary of the method: as §1

[3] = tested on: Pseudomonas aeruginosa ATCC 27853; assay: as above; settings: ATCC 27853
Summary of the method: as §1

Salmonella dublin (Lane) = assay: as above
Summary of the method: as §1

[4] = tested on: Staphylococcus epidermidis ATCC 12228; assay: as above; settings: ATCC 12228
Summary of the method: as §1

[5] = tested on: Propionibacterium acnes ATCC 6919; assay: MIC, agar dilution method NCCLS M11-A6, Brucella agar, anaerobic (Table 9, superscript c); settings: ATCC 6919
Summary of the method: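 MIC taken as the lowest peptide level giving no colonies on the plate. Plates were inoculated to 1.5×10^8 CFU/milliliter, then kept anaerobically at 37° C. for 48-96 hours; method follows NCCLS M11-A6.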

[6] = tested on: Candida albicans ATCC 18804; assay: MIC in yeasts, NCCLS M27-A2 broth microdilution, RPMI 1640 (Table 9, letter e); settings: ATCC 18804
Summary of the method: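 Plates incubated 24 to 48 hours at 37° C, with yeast seeded at 0.5×10^3–2.5×10^3 CFU/milliliter final in RPMI 1640 (glutamine, phenol red indicator). MIC was read as the lowest peptide concentration showing no visible growth.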

Row | SMILES | MIC S. aureus [1] | MIC E. coli [2] | MIC P. aeruginosa [3] | MIC S. dublin (Salmonella dublin (Lane)) | MIC S. epidermidis [4] | MIC P. acnes [5] | MIC C. albicans [6]
1 | CCCCCCCCCCCC(=O)N[C@@H](CCCNC(=N)N)C(=O)N[C@@H](CO)C(=O)N[C@@H](CCCNC(=N)N)C(=O)N[C@@H](Cc1c[nH]c2ccccc12)C(=O)N[C@@H](CCCNC(=N)N)C(=O)N[C@@H](CC(=O)O)C(=O)N[C@H](C(=O)N[C@@H](C)C(=O)N[C@@H](CCCNC(=N)N)C(N)=O)C(C)C [Peptide 101, Lauryl-RSRWRDVAR-NH2] (Lauroyl-RSRWRDVAR-NH2) | 4 µg/mL (≈ 2.89 µM) | 32 µg/mL (≈ 23.1 µM) | 32 µg/mL (≈ 23.1 µM) | >64 µg/mL | 2 µg/mL (≈ 1.45 µM) | >64c ug/mL | >64e ug/mL
2 | CCCCCCCCCCCC(=O)N[C@@H](CCCNC(=N)N)C(=O)N[C@@H](CO)C(=O)N[C@@H](CCCNC(=N)N)C(=O)N[C@@H](Cc1c[nH]c2ccccc12)C(=O)N[C@@H](CCCNC(=N)N)C(=O)N[C@@H](CC(=O)O)C(=O)N[C@H](C(=O)N[C@@H](C)C(N)=O)C(C)C [Peptide 102, Lauryl-RSRWRDVA-NH2] (Lauroyl-RSRWRDVA-NH2) | 4 µg/mL (≈ 3.26 µM) | >64 µg/mL | 64 µg/mL (≈ 52.2 µM) | >64 µg/mL | 8 µg/mL (≈ 6.52 µM) | >64c ug/mL | 64e ug/mL
3 | CCCCCCCCCCCC(=O)N[C@@H](CO)C(=O)N[C@@H](CCCNC(=N)N)C(=O)N[C@@H](Cc1c[nH]c2ccccc12)C(=O)N[C@@H](CCCNC(=N)N)C(=O)N[C@@H](CC(=O)O)C(=O)N[C@H](C(=O)N[C@@H](C)C(N)=O)C(C)C [Peptide 104, Lauryl-SRWRDVA-NH2] (Lauroyl-SRWRDVA-NH2) | 4 µg/mL (≈ 3.74 µM) | >64 µg/mL | >64 µg/mL | >64 µg/mL | >64 µg/mL | >64c ug/mL | >64e ug/mL
4 | CCCCCCCCCCCC(=O)N[C@H](CCCNC(=N)N)C(=O)N[C@H](CO)C(=O)N[C@H](CCCNC(=N)N)C(=O)N[C@H](Cc1c[nH]c2ccccc12)C(=O)N[C@H](CCCNC(=N)N)C(=O)N[C@H](CC(=O)O)C(=O)N[C@@H](C(=O)N[C@H](C)C(=O)N[C@H](CCCNC(=N)N)C(=O)N[C@H](CC(N)=O)C(=O)N[C@H](Cc1ccccc1)C(N)=O)C(C)C [Peptide 116, Lauryl-rsrwrdvarnf-NH2] (Lauroyl-[dR][dS][dR][dW][dR][dD][dV][dA][dR][dN][dF]-NH2) | 8 µg/mL (≈ 4.87 µM) | 8 µg/mL (≈ 4.87 µM) | 8 µg/mL (≈ 4.87 µM) | 8 µg/mL (≈ 4.87 µM) | 4 µg/mL (≈ 2.43 µM) | 8c ug/mL | 32e ug/mL
5 | CCCCCCCCCCCC(=O)N[C@H](CCCNC(=N)N)C(=O)N[C@H](CO)C(=O)N[C@H](CCCNC(=N)N)C(=O)N[C@H](Cc1c[nH]c2ccccc12)C(=O)N[C@H](CCCNC(=N)N)C(=O)N[C@H](CC(=O)O)C(=O)N[C@@H](C(=O)N[C@H](C)C(=O)N[C@H](CCCNC(=N)N)C(N)=O)C(C)C [Peptide 118, Lauryl-rsrwrdvar-NH2] (Lauroyl-[dR][dS][dR][dW][dR][dD][dV][dA][dR]-NH2) | 8 µg/mL (≈ 5.79 µM) | 64 µg/mL (≈ 46.3 µM) | 32 µg/mL (≈ 23.1 µM) | >64 µg/mL | 8 µg/mL (≈ 5.79 µM) | 16c ug/mL | 32e ug/mL
6 | CCCCCCCCCCCC(=O)N[C@H](CCCNC(=N)N)C(=O)N[C@H](CO)C(=O)N[C@H](CCCNC(=N)N)C(=O)N[C@H](Cc1c[nH]c2ccccc12)C(=O)N[C@H](CCCNC(=N)N)C(=O)N[C@H](CC(=O)O)C(=O)N[C@@H](C(N)=O)C(C)C [Peptide 120, Lauryl-rsrwrdv-NH2] (Lauroyl-[dR][dS][dR][dW][dR][dD][dV]-NH2) | 16 µg/mL (≈ 13.8 µM) | >64 µg/mL | 64 µg/mL (≈ 55.4 µM) | >64 µg/mL | 16 µg/mL (≈ 13.8 µM) | 64c ug/mL | 64e ug/mL
7 | CCCCCCCCCCCC(=O)N[C@H](CCCNC(=N)N)C(=O)N[C@H](Cc1c[nH]c2ccccc12)C(=O)N[C@H](CCCNC(=N)N)C(=O)N[C@H](CC(=O)O)C(=O)N[C@@H](C(=O)N[C@H](C)C(=O)N[C@H](CCCNC(=N)N)C(N)=O)C(C)C [Peptide 122, Lauryl-rwrdvar-NH2] (Lauroyl-[dR][dW][dR][dD][dV][dA][dR]-NH2) | 8 µg/mL (≈ 7.02 µM) | 64 µg/mL (≈ 56.2 µM) | 16 µg/mL (≈ 14 µM) | 32 µg/mL (≈ 28.1 µM) | 8 µg/mL (≈ 7.02 µM) | 32c ug/mL | 32e ug/mL
8 | CCCCCCCCCCCC(=O)N[C@H](CCCNC(=N)N)C(=O)N[C@H](CC(=O)O)C(=O)N[C@@H](C(=O)N[C@H](C)C(=O)N[C@H](CCCNC(=N)N)C(=O)N[C@H](CC(N)=O)C(=O)N[C@H](Cc1ccccc1)C(=O)N[C@H](CCSC)C(=O)N[C@H](CCCNC(=N)N)C(N)=O)C(C)C [Peptide 128, Lauryl-rdvarnfmr-NH2] (Lauroyl-[dR][dD][dV][dA][dR][dN][dF][dM][dR]-NH2) | 16 µg/mL (≈ 11.9 µM) | 32 µg/mL (≈ 23.8 µM) | 32 µg/mL (≈ 23.8 µM) | 32 µg/mL (≈ 23.8 µM) | 8 µg/mL (≈ 5.94 µM) | 16c ug/mL | 32e ug/mL
9 | CCCCCCCCCCCC(=O)N[C@H](CCCNC(=N)N)C(=O)N[C@H](Cc1c[nH]c2ccccc12)C(=O)N[C@H](CCCNC(=N)N)C(=O)N[C@H](CC(=O)O)C(=O)N[C@@H](C(=O)N[C@H](C)C(=O)N[C@H](CCCNC(=N)N)C(=O)N[C@H](CC(N)=O)C(=O)N[C@H](Cc1ccccc1)C(=O)N[C@H](CCSC)C(=O)N[C@H](CCCNC(=N)N)C(N)=O)C(C)C [Peptide 130, Lauryl-rwrdvarnfmr-NH2] (Lauroyl-[dR][dW][dR][dD][dV][dA][dR][dN][dF][dM][dR]-NH2) | 4 µg/mL (≈ 2.37 µM) | 8 µg/mL (≈ 4.74 µM) | 8 µg/mL (≈ 4.74 µM) | 16 µg/mL (≈ 9.48 µM) | 2 µg/mL (≈ 1.18 µM) | 8c ug/mL | 16e ug/mL
10 | CCCCCCCCCCCC(=O)N[C@H](CO)C(=O)N[C@H](CCCNC(=N)N)C(=O)N[C@H](Cc1c[nH]c2ccccc12)C(=O)N[C@H](CCCNC(=N)N)C(=O)N[C@H](CC(=O)O)C(=O)N[C@@H](C(=O)N[C@H](C)C(=O)N[C@H](CCCNC(=N)N)C(=O)N[C@H](CC(N)=O)C(=O)N[C@H](Cc1ccccc1)C(=O)N[C@H](CCSC)C(=O)N[C@H](CCCNC(=N)N)C(N)=O)C(C)C [Peptide 131, Lauryl-srwrdvarnfmr-NH2] (Lauroyl-[dS][dR][dW][dR][dD][dV][dA][dR][dN][dF][dM][dR]-NH2) | 4 µg/mL (≈ 2.25 µM) | 8 µg/mL (≈ 4.51 µM) | 8 µg/mL (≈ 4.51 µM) | 8 µg/mL (≈ 4.51 µM) | 2 µg/mL (≈ 1.13 µM) | 2c ug/mL | 16e ug/mL
11 | CCCCCCCCCCCC(=O)N[C@H](CCCNC(=N)N)C(=O)N[C@H](CO)C(=O)N[C@H](CCCNC(=N)N)C(=O)N[C@H](CC(C)C)C(=O)N[C@H](CCCNC(=N)N)C(=O)N[C@H](CC(=O)O)C(=O)N[C@H](CC(C)C)C(=O)N[C@H](CC(C)C)C(=O)N[C@H](CCCNC(=N)N)C(=O)N[C@H](CC(N)=O)C(=O)N[C@H](CC(C)C)C(=O)N[C@H](C)C(=O)N[C@H](CCCNC(=N)N)C(N)=O [Peptide 132, Lauryl-rsrlrdllrnlar-NH2] (Lauroyl-[dR][dS][dR][dL][dR][dD][dL][dL][dR][dN][dL][dA][dR]-NH2) | 4 µg/mL (≈ 2.2 µM) | 4 µg/mL (≈ 2.2 µM) | 32 µg/mL (≈ 17.6 µM) | 4 µg/mL (≈ 2.2 µM) | 2 µg/mL (≈ 1.1 µM) | 8c ug/mL | 4e ug/mL
12 | CCCCCCCCCCCC(=O)N[C@H](CCCNC(=N)N)C(=O)N[C@H](CO)C(=O)N[C@H](CCCNC(=N)N)C(=O)N[C@H](Cc1c[nH]c2ccccc12)C(=O)N[C@H](CCCNC(=N)N)C(=O)N[C@H](CC(=O)O)C(=O)N[C@H](CC(C)C)C(=O)N[C@H](CC(C)C)C(=O)N[C@H](CCCNC(=N)N)C(=O)N[C@H](CC(N)=O)C(=O)N[C@H](CC(C)C)C(=O)N[C@H](CCSC)C(=O)N[C@H](CCCNC(=N)N)C(N)=O [Peptide 133, Lauryl-rsrwrdllrnlmr-NH2] (Lauroyl-[dR][dS][dR][dW][dR][dD][dL][dL][dR][dN][dL][dM][dR]-NH2) | 4 µg/mL (≈ 2.05 µM) | 16 µg/mL (≈ 8.19 µM) | 32 µg/mL (≈ 16.4 µM) | 8 µg/mL (≈ 4.1 µM) | 2 µg/mL (≈ 1.02 µM) | 2c ug/mL | 2e ug/mL
